According to ChEMBL document CHEMBL1201862, “PubChem BioAssay data set” (2004):
Activity calls are given as the source filed them.

Columns and labels:
HEK293 [1] = test: cells; format: functional, cell-based; settings: Homo sapiens
[2] = molecular target: T1, Nuclear receptor subfamily 0 group B member 1 (Homo sapiens, UniProt P51843); test: Luminescence-based cell-based high throughput dose response assay for inhibitors of the orphan nuclear receptor subfamily 0, group B, member 1 (DAX1; NR0B1). [Related pubchem assays (depositor defined):AID504766, AID504790]; format: functional
T1 sequence (P51843 whole entry): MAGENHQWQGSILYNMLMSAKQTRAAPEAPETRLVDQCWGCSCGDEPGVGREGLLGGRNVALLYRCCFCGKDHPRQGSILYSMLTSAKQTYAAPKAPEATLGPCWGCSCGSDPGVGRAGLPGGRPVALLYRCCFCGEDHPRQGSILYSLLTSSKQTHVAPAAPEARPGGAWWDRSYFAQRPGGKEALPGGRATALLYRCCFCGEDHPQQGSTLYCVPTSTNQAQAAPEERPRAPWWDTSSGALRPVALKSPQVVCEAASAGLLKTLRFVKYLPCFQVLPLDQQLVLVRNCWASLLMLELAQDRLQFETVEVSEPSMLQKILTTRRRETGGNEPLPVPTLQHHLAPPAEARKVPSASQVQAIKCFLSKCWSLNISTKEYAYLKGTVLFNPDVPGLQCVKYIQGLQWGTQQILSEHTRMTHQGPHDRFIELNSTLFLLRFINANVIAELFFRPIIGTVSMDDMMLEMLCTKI

[3] = molecular target: Glyceraldehyde-3-phosphate dehydrogenase (Homo sapiens, UniProt P04406)
Glyceraldehyde-3-phosphate dehydrogenase, sequence (P04406 whole entry): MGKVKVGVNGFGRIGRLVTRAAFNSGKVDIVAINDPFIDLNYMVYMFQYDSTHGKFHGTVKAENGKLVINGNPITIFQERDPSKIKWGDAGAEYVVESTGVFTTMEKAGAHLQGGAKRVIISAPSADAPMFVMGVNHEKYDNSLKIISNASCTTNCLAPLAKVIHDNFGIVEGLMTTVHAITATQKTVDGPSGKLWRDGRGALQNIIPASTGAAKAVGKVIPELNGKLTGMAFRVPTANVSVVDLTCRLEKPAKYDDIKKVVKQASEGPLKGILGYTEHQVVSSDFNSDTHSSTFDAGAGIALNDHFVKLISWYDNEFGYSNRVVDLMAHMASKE

[4] = molecular target: T2, Alkaline phosphatase, tissue-nonspecific isozyme (Homo sapiens, UniProt P05186); test: potency against alkaline phosphatase TNAP – biochemical, luminescent, dose response, SAR follow-up (AID 1056)
T2 sequence (P05186 whole entry): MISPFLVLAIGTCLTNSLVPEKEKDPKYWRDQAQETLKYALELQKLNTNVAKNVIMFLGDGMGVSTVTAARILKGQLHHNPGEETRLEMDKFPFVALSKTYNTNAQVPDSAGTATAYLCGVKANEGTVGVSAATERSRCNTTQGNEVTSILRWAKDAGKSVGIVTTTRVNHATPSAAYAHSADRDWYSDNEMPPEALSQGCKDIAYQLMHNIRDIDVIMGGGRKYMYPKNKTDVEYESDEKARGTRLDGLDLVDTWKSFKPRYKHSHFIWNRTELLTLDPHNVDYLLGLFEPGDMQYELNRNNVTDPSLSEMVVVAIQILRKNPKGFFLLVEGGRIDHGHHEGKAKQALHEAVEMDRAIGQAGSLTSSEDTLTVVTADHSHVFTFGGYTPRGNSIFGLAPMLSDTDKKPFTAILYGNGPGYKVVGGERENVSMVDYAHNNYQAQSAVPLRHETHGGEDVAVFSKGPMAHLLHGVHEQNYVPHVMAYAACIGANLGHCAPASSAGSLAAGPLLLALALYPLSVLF

[5] = Luminescence Cell-Based Dose Confirmation HTS to Identify Activators of 5'UTR Stem-Loop Driven Alpha-Synuclein mRNA Translation in H4 Neuroglioblastoma Cells. [Related pubchem assays: 1829 (Project Summary), 1814 (Primary HTS)]; format: functional
[6] = Luminescence Cell-Based Dose Response HTS to Identify Activators of Luciferase Translation or Activity in H4 […] Cells. [Related pubchem assays: 1829 (Project Summary), 1814 (Primary HTS)]; format: functional
cells [7] = format: functional, cell-based
H4 = test: Luminescence Cell-Based Dose Response HTS to Identify Activators of 5'UTR Stem-Loop Driven Prion Protein mRNA Translation in H4 Neuroglioblastoma Cells. [Related pubchem assays: 1829 (Project Summary), 1814 (Primary HTS)]; format: functional; settings: Homo sapiens
cells [8] = format: functional, cell-based; remark: listed apart in the source
[9] = molecular target: DNA dC->dU-editing enzyme APOBEC-3A (Homo sapiens, UniProt P31941); test: Dose Response confirmation of small molecule APOBEC3A DNA Deaminase Inhibitors via a fluorescence-based single-stranded DNA deaminase assay. [Related pubchem assays (depositor defined):AID493011, AID493024]; format: functional
DNA dC->dU-editing enzyme APOBEC-3A, sequence (P31941 whole entry): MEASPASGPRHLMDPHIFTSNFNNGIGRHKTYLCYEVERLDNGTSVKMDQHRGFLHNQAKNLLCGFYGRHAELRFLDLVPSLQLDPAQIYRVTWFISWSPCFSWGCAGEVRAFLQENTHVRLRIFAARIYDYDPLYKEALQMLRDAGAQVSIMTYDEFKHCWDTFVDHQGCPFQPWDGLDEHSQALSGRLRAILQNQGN

[10] = molecular target: DNA dC->dU-editing enzyme APOBEC-3G (Homo sapiens, UniProt Q9HC16); format: functional;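 note: Dose-response counterscreen measuring inhibition of APOBEC3G DNA deaminase activity, run while confirming APOBEC3A inhibitors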
DNA dC->dU-editing enzyme APOBEC-3G, sequence (Q9HC16 whole entry): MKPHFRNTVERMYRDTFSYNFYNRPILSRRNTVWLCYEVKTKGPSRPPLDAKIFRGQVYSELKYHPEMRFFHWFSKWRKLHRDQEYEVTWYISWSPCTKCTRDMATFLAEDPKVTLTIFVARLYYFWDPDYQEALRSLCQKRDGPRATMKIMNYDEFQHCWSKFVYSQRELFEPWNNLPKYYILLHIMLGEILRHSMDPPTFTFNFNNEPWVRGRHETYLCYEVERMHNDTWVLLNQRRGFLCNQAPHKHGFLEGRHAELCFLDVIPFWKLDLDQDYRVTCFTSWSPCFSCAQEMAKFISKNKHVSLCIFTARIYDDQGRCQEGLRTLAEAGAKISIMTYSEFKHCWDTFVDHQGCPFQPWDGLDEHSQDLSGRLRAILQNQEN

HT-1080 = test: HT1080 cell viability loss – fluorescence readout (AID 620); format: functional, cell-based; settings: Homo sapiens
[11] = molecular target: Luciferin 4-monooxygenase (Photinus pyralis, UniProt P08659); test: Counter Screen for Luciferase-based Assay Positives. [Related pubchem assays: 620, 618, 411 ]
Luciferin 4-monooxygenase, sequence (P08659 whole entry): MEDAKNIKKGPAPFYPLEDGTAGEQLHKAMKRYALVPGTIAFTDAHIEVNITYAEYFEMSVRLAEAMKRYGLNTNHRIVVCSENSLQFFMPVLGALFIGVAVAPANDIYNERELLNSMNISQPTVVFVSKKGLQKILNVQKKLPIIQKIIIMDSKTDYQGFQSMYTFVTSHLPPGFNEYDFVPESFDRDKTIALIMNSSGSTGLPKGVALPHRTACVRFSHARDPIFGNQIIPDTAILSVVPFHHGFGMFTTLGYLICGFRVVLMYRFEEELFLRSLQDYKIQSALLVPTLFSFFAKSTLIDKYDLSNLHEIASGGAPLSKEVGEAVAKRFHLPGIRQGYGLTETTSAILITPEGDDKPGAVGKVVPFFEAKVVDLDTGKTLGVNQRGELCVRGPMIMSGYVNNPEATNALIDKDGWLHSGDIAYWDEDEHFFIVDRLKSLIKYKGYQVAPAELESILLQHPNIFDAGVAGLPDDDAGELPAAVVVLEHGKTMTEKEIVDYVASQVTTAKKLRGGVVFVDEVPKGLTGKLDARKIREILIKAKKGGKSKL

[12] = molecular target: T3, Microphthalmia-associated transcription factor (Homo sapiens, UniProt O75030); test: reducers of TRPM1 reporter luminescence, concentration series – cell-based, SK-MEL-5, cherry-picked, set 3, MITF inhibitor project, dose response (AID 493073); format: functional;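 note: SK-MEL-5 melanoma cells with luciferase driven by the MITF target TRPM1 promoter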
T3 sequence (O75030 whole entry): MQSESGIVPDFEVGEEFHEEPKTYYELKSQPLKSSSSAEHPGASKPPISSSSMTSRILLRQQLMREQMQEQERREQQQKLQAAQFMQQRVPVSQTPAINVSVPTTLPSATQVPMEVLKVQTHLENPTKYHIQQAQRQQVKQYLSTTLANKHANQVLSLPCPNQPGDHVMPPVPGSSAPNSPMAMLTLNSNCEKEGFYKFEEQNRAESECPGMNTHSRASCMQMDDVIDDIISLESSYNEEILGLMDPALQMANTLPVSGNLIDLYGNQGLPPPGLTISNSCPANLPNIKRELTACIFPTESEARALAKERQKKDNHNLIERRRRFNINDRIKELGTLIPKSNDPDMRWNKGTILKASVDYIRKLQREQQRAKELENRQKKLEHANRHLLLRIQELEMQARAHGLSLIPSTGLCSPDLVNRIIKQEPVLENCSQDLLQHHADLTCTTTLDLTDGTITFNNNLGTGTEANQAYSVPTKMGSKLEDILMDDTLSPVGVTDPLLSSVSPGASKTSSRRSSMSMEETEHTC

Jurkat = test: SAR Analysis of small molecule inhibitors of T-cell specific antigen receptor-induced NF-kB activation in a Jurkat cell line using a luminescence assay - Set 2. [Related pubchem assays (depositor defined):AID435003, AID435012, AID465]; format: functional, cell-based; settings: Homo sapiens
HEK293 [13] = test: SAR Analysis of small molecule inhibitors of T-cell specific antigen receptor-induced NF-kB activation in a HEK-293T cell line using a luminescence assay - Set 2. [Related pubchem assays (depositor defined):AID435003, AID435012, AID489026]; format: functional, cell-based; settings: Homo sapiens
HEK293 [14] = test: HEK293T cell viability loss, resazurin readout – resazurin fluorescence, cytotoxicity control for NF-kB activator project, SAR follow-up (AID 493251); format: functional, cell-based; settings: Homo sapiens
Vero = test: cells; format: functional; settings: Chlorocebus sabaeus
[15] = HEK-293T cell viability reduction – luminescence, B-cell screen hits, cytotoxicity control for BCR NF-kB inhibitor project, dose response (AID 489021); format: functional, cell-based;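 note: HEK-293T cells carrying an NF-kB luciferase reporter; cells exposed to compound for about 14 hours before viability readout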
[16] = microbe, parasite or virus in culture; format: functional; settings: Mycobacterium tuberculosis
[17] = Luminescence-based dose response cell-based high throughput screening assay for cytotoxic compounds using the IEC-6 intestinal epithelial cell line. [Related pubchem assays: 1858 (Summary AID.), 1825 (Counterscreen.), 1907 (Confirmation screen.)]; format: functional
[18] = viability of uninfected HEp-2 cells – cell-based, HTS, cytotoxicity control for RSV inhibitor project, dose response (AID 2410); format: functional; settings: human respiratory syncytial virus
[19] = molecular target: T4, Oxysterols receptor LXR-beta (Homo sapiens, UniProt P55055); format: functional, cell-based;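 note: agonist activity at LXR measured by a cell-based luminescence readout across a dose range, run as a counterscreen for daf-12 agonists; HEK293 cells with Gal4-LXR fusion and GAL4-driven luciferase reporter; potency for activation of Gal4-LXR reporter so compounds are agonists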
T4 sequence (P55055 whole entry): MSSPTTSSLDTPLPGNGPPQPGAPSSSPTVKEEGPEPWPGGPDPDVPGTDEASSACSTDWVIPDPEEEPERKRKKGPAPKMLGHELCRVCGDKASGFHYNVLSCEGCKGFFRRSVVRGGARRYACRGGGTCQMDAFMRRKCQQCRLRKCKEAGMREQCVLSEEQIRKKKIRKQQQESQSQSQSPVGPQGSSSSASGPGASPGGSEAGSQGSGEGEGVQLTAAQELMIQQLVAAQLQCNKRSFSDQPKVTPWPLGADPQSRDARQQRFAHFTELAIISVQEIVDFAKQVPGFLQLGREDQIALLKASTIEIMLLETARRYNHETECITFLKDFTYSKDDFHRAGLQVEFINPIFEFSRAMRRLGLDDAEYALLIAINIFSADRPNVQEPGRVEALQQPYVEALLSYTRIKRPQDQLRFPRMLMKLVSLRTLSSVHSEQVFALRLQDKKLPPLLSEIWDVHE

In the case of `Cc1cc2nc(CSc3ccc(Cl)cc3)cc(O)n2n1`, the IC50 (HEK293 [1]) is reported as > 67.6 µM (inactive) and the IC50 [2] is reported as > 67.6 µM (inactive).
In the case of `COc1ccc(OC)c(S(=O)(=O)Nc2cccc3ccccc23)c1`, the IC50 [3] is reported as > 100 µM (not active) and the IC50 [4] is reported as > 100 µM (inactive).
For `O=C(Nc1ncccc1O)c1ccc(S(=O)(=O)Nc2ccccc2)cc1`, the EC50 [5] was 12.2 µM (active), the EC50 [6] was 19.9 µM (active) and the EC50 (cells [7]) was 23.3 µM (active). For the same compound, the IC50 (HEK293 [1]) was > 0.00338 µM (active), the IC50 [2] was > 67.6 µM (inactive) and the EC50 (H4) was 22.9 µM (active). The EC50 (cells [8]) was > 350 µM (not active).
In the case of `O=C(CSc1nnc(NC(=O)c2ccccc2C(=O)O)s1)Nc1ccccc1Cl`, the IC50 [9] is reported as 14 µM (active) and the IC50 [10] is reported as 9.42 µM (active).
With `c1cc(Cn2ccnc2)ccn1` the IC50 [3] was > 100 µM (not active) and the IC50 [4] was > 100 µM (inactive).
With `CC1=NC(=O)C(N=Nc2cccc(C(=O)O)c2)N1c1ccccc1` (stereo not drawn) the EC50 (HT-1080) was > 50 µM (not active), the EC50 [11] was 0.67 µM (active) and the IC50 [9] was 4.74 µM (active). For the same compound, the AC50 [12] was 8.62 µM (active) and the IC50 [10] was 6.48 µM (active).
In the case of `Cc1cc(NC(=O)c2ccc([N+](=O)[O-])o2)cc(-c2nc3ccccc3o2)c1O`, the IC50 (Jurkat) is reported as 3.42 µM (active), the IC50 (HEK293 [13]) is reported as > 80 µM (inactive) and the IC50 (HEK293 [14]) is reported as > 80 µM (inactive).
With `Cc1[nH]c2ccccc2c1/C=N/Nc1nc(Nc2ccccc2)nc(N2CCOCC2)n1` the CC50 (Vero) was 3.33 µM (active), the IC50 [15] was 66.7 µM (inactive) and the CC50 [16] was 24.1 µM (active). The IC50 [17] was 0.482 µM (active) and the CC50 [18] was 22.6 µM (active).
With `Oc1[nH]c2ccccc2c1/C=N/c1ccccc1` the EC50 [19] was > 67.5 µM (inactive), the IC50 (HEK293 [1]) was > 67.5 µM (inactive) and the IC50 [2] was > 67.5 µM (inactive).
For `COc1ccc(OC)c(S(=O)(=O)Nc2ccc3ncccc3c2)c1`, the IC50 [3] was > 100 µM (not active) and the IC50 [4] was > 100 µM (inactive).
